In patent US20260166082A1, “METHODS OF TREATMENT WITH T CELL THERAPY AND IMMUNOMODULATORY AGENT MAINTENANCE THERAPY” (Celgene Corporation, priority 2022, published 2026):

Tests used:
[1] = system: minimal residual disease; assay: Example 1: MRD negativity by next-generation sequencing and EuroFlow; type: in vivo, human; details: subjects on lenalidomide maintenance after anti-BCMA CAR-T cells, subsequent analysis
Method: Exploratory endpoints, which included assessment of biomarkers (serum level of soluble BCMA (sBCMA) and inflammatory cytokines) by Luminex assay and minimal residual disease negativity (MRD−) by using aggregation of next-generation sequencing and 8-color flow cytometry (EuroFlow; sensitivity <10^−5 nucleated cells) data with interpolation to reduce missing/indeterminate data points. sBCMA levels were evaluated at leukapheresis; baseline; days 1, 4, and 8; and until disease progression. Plasma levels of immune-related inflammatory cytokines (interferon-γ (IFNγ), interleukin-6 (IL-6), interleukin-8 (IL-8) and interleukin-10 (IL-10)) were evaluated at leukapheresis; baseline; days 1-8, 10, 12, 15 18 and 22; and months 2 and 4. Efficacy and safety were analyzed in all subjects who received anti-BCMA CAR-T cells. PK, sBCMA, and MRD-were analyzed in evaluable subjects.

[2] = system: patients with multiple myeloma following ASCT; details: maintenance with lenalidomide following ASCT; 22.1 months follow up; cited from earlier work

Nc1cccc2c1CN(C1CCC(=O)NC1=O)C2=O (centres unmarked) [lenalidomide, 3-(4-amino-1-oxo-1,3-dihydro-2H-isoindol-2-yl) piperidine-2,6-dione]
MRD-negativity maintained at 36 months ([1]; 2/3 evaluable): 66.7% | MRD-negativity maintained at 12 months ([1]; 4/6 evaluable): 66.7% | MRD-negativity maintained at 24 months ([1]; 4/6 evaluable): 66.7% | complete response rate [2]: 60.9% | patients achieving minimal residual disease negativity [2]: 20.4
